pEC50: −log10 of the molar value.

The experiment has as its system HCV genotype 1b replicon in Huh 7 cells. Kind of experiment: HCV replicon assay (1b_Huh-Luc/Neo-ET cell line, luciferase readout). Type of experiment: cell-based. As to conditions: Hepatitis C virus, Huh-7; HCV 1b replicon; read-out: Inhibition of HCV genotype 1b. In short, it runs like this:
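Huh 7 cells carrying a bicistronic genotype 1b luciferase replicon were treated with compound in triplicate the day after plating and incubated 72 h. Luciferase activity expressed as % of untreated control; EC50 from a four-parameter logistic fit, repeated several times.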
Take `COC(=O)N[C@H](C(=O)N1CCC[C@H]1c1ncc(-c2ccc3cc(-c4ccc(-c5cnc([C@@H]6CCCN6C(=O)[C@H](NC(=O)OC)c6ccccc6)[nH]5)cn4)ccc3c2)[nH]1)[C@@H](C)OC` [compound 480]: the pEC50 is over 9.00.
In the case of `COC(=O)N[C@H](C(=O)N1CCC[C@H]1c1ncc(-c2ccc(-c3ccc4cc(-c5cnc([C@@H]6CCCN6C(=O)[C@@H](NC(=O)OC)[C@@H](C)OC)[nH]5)ccc4c3)cc2)[nH]1)C(C)C` [compound 481] it was over 9.00; in that of `COC(=O)N[C@H](C(=O)N1CCC[C@H]1c1ncc(-c2ccc(-c3ccc4cc(-c5cnc([C@@H]6CCCN6C(=O)[C@@H](NC(=O)OC)[C@@H](C)OC)[nH]5)ccc4n3)cc2)[nH]1)[C@@H](C)OC` [compound 482], over 9.00.
As to `COC(=O)N[C@H](C(=O)N1CCC[C@H]1c1ncc(-c2ccc(-c3cc4ccc(-c5cnc([C@@H]6CCCN6C(=O)[C@H](NC(=O)OC)c6ccccc6)[nH]5)cc4cn3)cc2)[nH]1)[C@@H](C)OC` [compound 483], the pEC50 is over 9.00.
Turning to `COC(=O)N[C@H](C(=O)N1CCC[C@H]1c1ncc(-c2ccc(-c3cc4ccc(-c5cnc([C@@H]6CCCN6C(=O)[C@H](NC(=O)OC)c6ccccc6)[nH]5)cc4cn3)cc2)[nH]1)[C@@H](C)O` [compound 484], the pEC50 was over 9.00.
In the case of `COC(=O)N[C@@H](C(=O)N1CCC[C@H]1c1ncc(-c2ccc(-c3ccc4cc(-c5cnc([C@@H]6CCCN6C(=O)[C@H](NC(=O)OC)c6ccsc6)[nH]5)ccc4n3)c(F)c2)[nH]1)c1ccccc1` [compound 485] it was over 9.00; in that of `C=CC[C@H](NC(=O)OC)C(=O)N1CCC[C@H]1c1ncc(-c2ccc3nc(-c4ccc(-c5cnc([C@@H]6CCCN6C(=O)[C@H](NC(=O)OC)c6ccccc6)[nH]5)cc4F)ccc3c2)[nH]1` [compound 486], over 9.00.
Regarding `C#CC[C@H](NC(=O)OC)C(=O)N1CCC[C@H]1c1ncc(-c2ccc3nc(-c4ccc(-c5cnc([C@@H]6CCCN6C(=O)[C@H](NC(=O)OC)c6ccccc6)[nH]5)cc4F)ccc3c2)[nH]1` [compound 487], the pEC50 was over 9.00.
As to `COC(=O)N[C@H](C(=O)N1CCC[C@H]1c1ncc(-c2cnc3cc(-c4ccc(-c5cnc([C@@H]6CCCN6C(=O)[C@@H](NC(=O)OC)[C@@H](C)OC)[nH]5)cc4)ccc3c2)[nH]1)C(C)C` [compound 488], the pEC50 was over 9.00.
For the molecule `COC(=O)N[C@H](C(=O)N1CCC[C@H]1c1ncc(-c2ccc3nc(-c4ccc(-c5cnc([C@@H]6CCCN6C(=O)[C@H](NC(=O)OC)c6ccccc6)[nH]5)cc4)ccc3c2)[nH]1)[C@@H](C)OC` [compound 489], the pEC50 is over 9.00.
To `COC(=O)N[C@H](C(=O)N1CCC[C@H]1c1ncc(-c2ccc3nc(-c4ccc(-c5cnc([C@@H]6CCCN6C(=O)[C@H](NC(=O)OC)c6ccccc6)[nH]5)cc4)ccc3c2)[nH]1)[C@@H](C)O` [compound 490] belongs over 9.00; to `COC(=O)N[C@@H](C)C(=O)N1CCC[C@H]1c1ncc(-c2ccc3nc(-c4ccc(-c5cnc([C@@H]6CCCN6C(=O)[C@H](NC(=O)OC)c6ccccc6)[nH]5)cc4)ccc3c2)[nH]1` [compound 491], over 9.00; to `CC[C@H](C)[C@H](NC(=O)OC)C(=O)N1CCC[C@H]1c1ncc(-c2ccc3nc(-c4ccc(-c5cnc([C@@H]6CCCN6C(=O)[C@H](NC(=O)OC)c6ccccc6)[nH]5)cc4)ccc3c2)[nH]1` [compound 492], over 9.00.
With `COC(=O)N[C@H](C(=O)N1CCC[C@H]1c1ncc(-c2ccc3nc(-c4ccc(-c5cnc([C@@H]6CN(C(C)=O)CCN6C(=O)[C@@H](NC(=O)OC)C(C)C)[nH]5)cc4)ccc3c2)[nH]1)C(C)C` [compound 493], the pEC50 was over 9.00.
In the case of `COC(=O)N[C@@H](C(=O)N1CCC[C@H]1c1ncc(-c2ccc3nc(-c4ccc(-c5cnc([C@@H]6CN(C(C)=O)CCN6C(=O)[C@H](NC(=O)OC)c6ccccc6)[nH]5)cc4)ccc3c2)[nH]1)c1ccccc1` [compound 494] it was over 9.00.
To `COC(=O)N[C@H](C(=O)N1CCN(C(C)=O)C[C@H]1c1ncc(-c2ccc(-c3ccc4cc(-c5cnc([C@@H]6CCCN6C(=O)[C@@H](NC(=O)OC)C6CCOCC6)[nH]5)ccc4n3)cc2)[nH]1)C(C)C` [compound 495] belongs over 9.00.
With `COC[C@H](NC(=O)OC)C(=O)N1CCC[C@H]1c1ncc(-c2ccc3cc(-c4ccc(-c5cnc([C@@H]6CCCN6C(=O)[C@H](NC(=O)OC)c6cccs6)[nH]5)cc4)ccc3c2)[nH]1` [compound 496], the pEC50 is over 9.00.
Consider `COC(=O)N[C@H](C(=O)N1CCC[C@H]1c1ncc(-c2ccc3cc(-c4ccc(-c5cnc([C@@H]6CCCN6C(=O)[C@H](NC(=O)OC)c6cccs6)[nH]5)cc4)ccc3c2)[nH]1)C(C)C` [compound 497], for which the pEC50 was over 9.00.
For the molecule `COC(=O)N[C@H](C(=O)N1CCC[C@H]1c1ncc(-c2ccc3cc(-c4ccc(-c5cnc([C@@H]6CCCN6C(=O)[C@H](NC(=O)OC)c6cccs6)[nH]5)cc4)ccc3c2)[nH]1)C(C)O` (stereo partly drawn) [compound 498], the pEC50 was over 9.00.
In the case of `COC(=O)N[C@@H](C)C(=O)N1CCC[C@H]1c1ncc(-c2ccc3cc(-c4ccc(-c5cnc([C@@H]6CCCN6C(=O)[C@H](NC(=O)OC)c6ccccc6)[nH]5)nn4)ccc3c2)[nH]1` [compound 499] it was over 9.00; in that of `COC(=O)N[C@H](C(=O)N1CCC[C@H]1c1ncc(-c2ccc3cc(-c4ccc(-c5cnc([C@@H]6CCCN6C(=O)[C@H](NC(=O)OC)c6ccccc6)[nH]5)nn4)ccc3c2)[nH]1)[C@@H](C)OC` [compound 500], over 9.00.
In the case of `COC(=O)N[C@H](C(=O)N1CCC[C@H]1c1ncc(-c2ccc3cc(-c4ccc(-c5cnc([C@@H]6CCCN6C(=O)[C@H](NC(=O)OC)c6ccccc6)[nH]5)nn4)ccc3c2)[nH]1)[C@@H](C)O` [compound 501] it was over 9.00.
Consider `COC(=O)N[C@@H](C)C(=O)N1CCC[C@H]1c1ncc(-c2ccc3cc(-c4ccc(-c5cnc([C@@H]6CCCN6C(=O)[C@H](NC(=O)OC)c6cccs6)[nH]5)cc4)ccc3c2)[nH]1` [compound 502], for which the pEC50 is over 9.00.
For `CC[C@H](C)[C@H](NC(=O)OC)C(=O)N1CCC[C@H]1c1ncc(-c2ccc(-c3ccc4cc(-c5cnc([C@@H]6CCCN6C(=O)[C@@H](NC(=O)OC)[C@@H](C)OC)[nH]5)ccc4c3)cc2)[nH]1` [compound 503], the pEC50 is over 9.00.
`COC(=O)N[C@H](C(=O)N1CCC[C@H]1c1ncc(-c2ccc(-c3ccc4cc(-c5cnc([C@@H]6CCCN6C(=O)[C@@H](NC(=O)OC)[C@@H](C)OC)[nH]5)ccc4c3)cc2)[nH]1)C1CCCC1` [compound 504]: the pEC50 is over 9.00.
Take `CCC(CC)[C@H](NC(=O)OC)C(=O)N1CCC[C@H]1c1ncc(-c2ccc(-c3ccc4cc(-c5cnc([C@@H]6CCCN6C(=O)[C@@H](NC(=O)OC)[C@@H](C)OC)[nH]5)ccc4c3)cc2)[nH]1` [compound 505]: the pEC50 is over 9.00.
Take `COC(=O)N[C@H](C(=O)N1CCC[C@H]1c1ncc(-c2ccc3cc(-c4cnc(-c5cnc([C@@H]6CCCN6C(=O)[C@@H](NC(=O)OC)C(C)C)[nH]5)cn4)ccc3c2)[nH]1)C(C)C` [compound 506]: the pEC50 is over 9.00.
For the molecule `COC(=O)N[C@@H](C(=O)N1CCC[C@H]1c1ncc(-c2ccc3nc(-c4ccc5nc([C@@H]6CCCN6C(=O)[C@H](NC(=O)OC)c6ccccc6)[nH]c5c4)ccc3c2)[nH]1)c1ccccc1` [compound 507], the pEC50 was over 9.00.
On to `O=C(N[C@@H](C(=O)N1CCC[C@H]1c1ncc(-c2ccc3nc(-c4ccc5nc([C@@H]6CCCN6C(=O)[C@H](NC(=O)OC6CCOCC6)c6ccccc6)[nH]c5c4)ccc3c2)[nH]1)c1ccccc1)OC1CCOCC1` [compound 508], for which the pEC50 was over 9.00.
On to `COC(=O)N[C@H](C(=O)N1CCC[C@H]1c1nc2ccc(-c3ccc4cc(-c5cnc([C@@H]6CCCN6C(=O)[C@H](NC(=O)OC6CCOCC6)c6ccccc6)[nH]5)ccc4n3)cc2[nH]1)C(C)C` [compound 509], for which the pEC50 was over 9.00.
To `COC(=O)N[C@H](C(=O)N1CCC[C@H]1c1nc2ccc(-c3ccc4cc(-c5cnc([C@@H]6CCCN6C(=O)[C@@H](NC(=O)OC)[C@@H](C)OC)[nH]5)ccc4c3)cc2[nH]1)C(C)C` [compound 510] belongs over 9.00; to `CC[C@H](C)[C@H](NC(=O)OC)C(=O)N1CCC[C@H]1c1nc2ccc(-c3ccc4cc(-c5cnc([C@@H]6CCCN6C(=O)[C@@H](NC(=O)OC)[C@@H](C)OC)[nH]5)ccc4c3)cc2[nH]1` [compound 511], over 9.00; to `COC(=O)NC(C(=O)N1CCC[C@H]1c1ncc(-c2ccc3cc(-c4ccc5nc([C@@H]6CCCN6C(=O)C(NC(=O)OC)=C(C)C)[nH]c5c4)ccc3c2)[nH]1)=C(C)C` [compound 512], over 9.00.
Regarding `COC[C@H](NC(=O)OC)C(=O)N1CCC[C@H]1c1ncc(-c2ccc3cc(-c4ccc5nc([C@@H]6CCCN6C(=O)[C@@H](NC(=O)OC)C(C)C)[nH]c5c4)ccc3c2)[nH]1` [compound 513], the pEC50 is over 9.00.
`CC[C@H](C)[C@H](NC(=O)OC)C(=O)N1CCC[C@H]1c1nc2ccc(-c3ccc4cc(-c5cnc([C@@H]6CCCN6C(=O)[C@H](COC)NC(=O)OC)[nH]5)ccc4c3)cc2[nH]1` [compound 514]: the pEC50 is over 9.00.
In the case of `COC(=O)N[C@H](C(=O)N1CCC[C@H]1c1ncc(-c2ccc3cc(-c4ccc5nc([C@@H]6CCCN6C(=O)[C@@H](NC(=O)OC)C6CCCC6)[nH]c5n4)ccc3c2)[nH]1)C1CCCC1` [compound 515] it was over 9.00.
In the case of `COC(=O)N[C@H](C(=O)N1CCC[C@H]1c1ncc(-c2ccc3cc(-c4ccc5nc([C@@H]6CCCN6C(=O)[C@@H](NC(=O)OC)C6CC6)[nH]c5n4)ccc3c2)[nH]1)C1CC1` [compound 516] it was over 9.00.
As for `COC(=O)N[C@H](C(=O)N1CCC[C@H]1c1ncc(-c2ccc3cc(-c4ccc5nc([C@@H]6CCCN6C(=O)[C@@H](NC(=O)OC)C6CCCCC6)[nH]c5n4)ccc3c2)[nH]1)C1CCCCC1` [compound 517], the pEC50 is over 9.00.
To `CCC(CC)[C@H](NC(=O)OC)C(=O)N1CCC[C@H]1c1ncc(-c2ccc3cc(-c4ccc5nc([C@@H]6CCCN6C(=O)[C@@H](NC(=O)OC)C(CC)CC)[nH]c5c4)ncc3c2)[nH]1` [compound 518] belongs over 9.00.

(Values after patent US8877707B2, “Inhibitors of HCV NS5A” (Presidio Pharmaceuticals, Inc., priority 2010, dated 2014).)
